This note sets out measurements from a melting point compilation (Tetko et al.; mined from patent text by program, amines drawn as free bases though some values may be those of a salt).

For orientation: melting point means the temperature of the solid-liquid transition. With `CC(=O)Nc1ccc(Nc2nnc(Cc3ccncc3)c3ccccc23)cc1`, the melting point is over 270 °C.
On to `Cc1nc(Cl)c2c(c1O)COC2(C)c1ccccc1` (stereo unspecified), for which the melting point is 246 °C.
As for `CC(=O)Nc1ccccc1C(=O)Nc1cccc2cc(Br)cnc12`, the figure is 206 °C.
`CC1=C(C)C(=O)C(CCCCCC2=C(C)C(=O)C(C)=C(C)C2=O)=C(C)C1=O` registered a melting point of 138 °C.
As for `CC1(C)O[C@H]2[C@H](OCc3ccccc3)O[C@H](C(=O)O)[C@H]2O1`, the figure is 79 °C; as for `O=C(O)Cn1c(-c2ccccc2)ncc(NC(=O)OCc2ccccc2)c1=O`, 179 to 183 °C; as for `O=C(c1ccc(Br)cc1)C1CCN(CCc2c[nH]c3ccccc23)CC1`, 178 to 180 °C.
In turn, `COc1ccc2ccccc2c1-c1c(C)c2c(c(C)c1P(c1ccccc1)c1ccccc1)CCC2` had a melting point of 166 °C.
Molecule `NC(=O)N(O)Cc1ccc(Sc2ccc(Cl)cc2)s1` showed a melting point of 158 to 160 °C.
As for `CCOCCn1c(N(Cc2ccccc2)C2CCN(C(=O)OCC)CC2)nc2cccnc21`, the figure is 115 °C; as for `COc1ccc(C2SCC(C(=O)O)N2C(=O)OC(C)(C)C)cc1` (stereo unspecified), 160 to 162 °C; as for `CCOC(=O)c1ccc(Cl)nc1OCC`, 33 to 35 °C.
Turning to `CCCCc1cc2cc(N)ccn2c1C(=O)c1ccc(OCCCN(CCCC)CCCC)cc1`, the melting point fell in the range of 88 to 89 °C.
As for `N#CC1(CCc2ccccc2)CCCCCN1C(=O)c1ccccc1` (stereo unspecified), the figure is 116 to 118 °C.
In the case of `Cc1c(C)c(N2CCN(C(=O)OC(C)(C)C)CC2)c(C)c2c1OC(C)(C)C2N1CCCCC1` (stereo unspecified), the melting point was 167 to 168 °C.
In turn, `Cc1ccc(S(=O)(=O)N2CCC(c3ccc4c(c3)C(=O)CCCC4)CC2)cc1` registered a melting point of 165 to 169 °C.
The value for `Nc1cc(Cl)c(N2CCCCC2)cc1-c1noc(=O)[nH]1` was 186 to 189 °C; that for `C=CCOC(=O)c1ccc(N)cc1` was 48 to 50 °C.
As to `CC(=O)Nc1ccc(N2C(=O)CCCC2c2ccc(Cl)c(Cl)c2)cc1` (stereo unspecified), the melting point fell in the range of 267 to 268 °C.
The value for `CCCOc1ccc(OC)c(-c2csc(N)n2)c1` was 76 °C.
In turn, `CCOC(=O)CC(=O)C=Cc1cccc([N+](=O)[O-])c1` came in with a melting point of 92 to 93 °C.
The molecule `CCC(=Cc1ccc(OCCCC(=O)O)c(Cl)c1Cl)[N+](=O)[O-]` displayed a melting point of 155 to 156 °C.
The value for `O=C(N[C@H](Cc1ccc(C(F)(F)F)cc1)[C@@H](O)c1ccc(Oc2ccccc2)cc1)c1ccc(F)c2ccccc12` (racemic) was 184 to 185 °C; that for `COC(=O)C1(NC(=O)Cc2cc(-c3ccc(F)cc3)ccc2C)CCC(F)(F)CC1` was 187 °C.
As for `CCCCC[C@H]1CC[C@H](c2ccc(-c3ccc(CCc4ccc(OCC)cc4)cc3)cc2F)CC1`, the figure is 133 °C; as for `C/C(=N\O)c1cccc(NC(=O)NCC(=O)N(CC(=O)N(C)c2ccccc2)c2ccccc2)c1`, 170 °C.
As for `Cc1ccc(-c2ncc3c(n2)CCCC3)nc1-c1ccc(C=O)cc1`, the melting point lay within 151 to 154 °C.
As for `COC(=O)c1ccsc1N/C=C(\C#N)C(=O)OC(C)(C)C`, the figure is 154 to 157 °C.
For the molecule `OCc1cccc2c(Br)c3ccccc3cc12`, the melting point fell in the range of 125 to 127 °C.
Molecule `CC(C)(C)OC(=O)NCc1ccccc1-c1ccccc1C(=O)O` yielded a melting point of 136 °C.
The value for `C=CCOc1ccccc1-c1ncc(C#N)c(=O)[nH]1` was 162 to 164 °C; that for `Cc1c(Br)c2c(c(C)c1NC(=O)CC(C)(C)C)C(c1ccc(C(C)C)cc1)CS2(=O)=O` (stereo unspecified) was 211 to 213 °C.
As for `COCc1cc([N+](=O)[O-])ccc1OCc1ccccc1`, the figure is 108 °C.
Molecule `CN1C(=O)CN(CCc2ccccc2)C1=O` returned a melting point of 113 to 114 °C.
`COc1ccc(C(=O)C#CC(=O)O)c(OC)c1OC` came in with a melting point of 119 to 121 °C.
As for `CN(C)c1cc2c(cc1OCc1ccccc1)CCC1C2CCC2(C)C(=O)CCC12` (stereo unspecified), the figure is 165 to 166 °C; as for `COc1ccnc(OC)c1CON=C(C#N)c1cc(C)cc(C)n1`, 196 to 201 °C; as for `NCCCn1c(-c2ccc(-c3ccccc3)cc2)csc1=Nc1ccccc1`, 50 to 54 °C.
With `O=C(O)[C@@H]1CCCN1C(=O)C(Sc1nc2cc(Cl)ccc2s1)c1ccccc1` (stereo partly specified), the melting point was 160 to 161 °C.
With `O=C(O)C1CCc2c(c3ccccc3n2C(=O)c2cccc(Br)c2)C1` (stereo unspecified), the melting point was in the range of 185 to 186 °C.
With `CC(C)CN1CC(O)C(O)C(O)C1CO` (stereo unspecified), the melting point was in the range of 192 to 194 °C.
`Cc1nc(Br)cnc1NS(=O)(=O)c1cccc2c(N(C)C)cccc12`: the melting point lay within 171 to 172 °C.
In turn, `O=C1c2ccccc2C(=O)N1CCNOCc1ccccc1` came in with a melting point of 89 to 91 °C.
As for `COc1cc(/C=C(\C)C(=O)O)c2cccc(C(C)C)c2c1O`, the melting point lay in the range of 195 to 196 °C.
Consider `O=C(O)CCCCc1ccc([N+](=O)[O-])cn1`, for which the melting point was in the range of 105 to 107 °C.
Molecule `CC(=O)N(C[C@H]1CN(c2ccc(N3CCC4(CC3)OCCO4)c(F)c2)C(=O)O1)C(C)=O` showed a melting point of 200 to 202 °C.
The value for `CCOC(=O)Cc1ccc2oc(-c3ccc(Cl)cc3)nc2c1` was 81 to 82 °C.
As for `CCCc1c2c(c(F)c3c(=O)cc(C(=O)OCC)oc13)CCCC2`, the figure is 126 to 129 °C; as for `Nc1c(SC(F)(F)F)c(C=O)nn1-c1c(Cl)cc(CC(F)(F)F)cc1Cl`, 140 to 143 °C.
The value for `COc1cc(OC)cc(-c2ncoc2-c2ccc3c(c2)NCCO3)c1` was 175 to 178 °C.
`CC(C)(C)c1ccc(Oc2coc(C(=O)O)cc2=O)cc1` showed a melting point of 190 to 193 °C.
The value for `Cc1cc(C)cc(C23SCCN2C(=O)c2ccccc23)c1` (stereo unspecified) was 163 °C.
As to `FC(F)(F)c1ccc(-c2cc(C(F)(F)F)n3ncc(Br)c3n2)cc1`, the melting point was determined as 136 °C.
As for `C=C(C)COc1ccc(C(=O)C=Cc2cccnc2)c(O)c1`, the figure is 164 to 166 °C.
`O=C(Nc1c[nH]nc1C(=O)NCC(F)(F)F)c1ccccn1` had a melting point of 235 to 236 °C.
The value for `CCOP(=O)(COc1ccc2c(c1)[nH]c1ccccc12)OCC` was 159 °C; that for `O=C1Oc2ccccc2NC1Cl` (stereo unspecified) was 133 to 136 °C; that for `CC(C)c1ccc(N(Cc2ccc(N(C)C)cc2)C(=O)C2CCSc3ccccc32)cc1` (stereo unspecified) was 118 °C.
As for `CC(C)[Si](OCCOc1cc(CO)ccc1Br)(C(C)C)C(C)C`, the figure is 62.2 °C.
As for `O=C(Cc1ccc(Cl)nc1)Nc1ccccn1`, the figure is 130 °C; as for `O=[N+]([O-])c1ccc2c(c1)C(Cc1ccncc1)(Cc1ccncc1)c1ccccc1-2`, 260 to 264 °C.
Consider `O=C(O)c1cc2c(Cl)ccc(Br)c2s1`, for which the melting point was over 300 °C.
As for `Cn1c(C(F)(F)F)cc(=O)n(-c2ccc3snc(C4OCCCS4)c3c2)c1=O` (stereo unspecified), the figure is 125 to 130 °C.
Molecule `COC(=O)C(=CN(C)C)C(=O)C=Cc1ccc(Cl)cc1` yielded a melting point of 78 to 80 °C.
The value for `CCOC(=O)CN(C#N)Cc1cc(-n2cc(C)nc2C)cc(C)c1N` was 135 to 140 °C; that for `O=c1c(Cc2cccnc2)cn2c3cc(Cl)ccc3c3cc(OCCCO)cc1c32` was 137 to 139 °C; that for `COc1cc(F)c(C)cc1[N+](=O)[O-]` was 71 to 74 °C.
Consider `CCCn1c(=S)[nH]c2ccsc2c1=O`, for which the melting point is over 230 °C.
The value for `O=C1NC(=O)C(c2cc(F)cc(F)c2)(c2cc(F)cc(F)c2)N1` was 271 to 274 °C; that for `O=C(O)CCSc1cccc(Br)c1` was 87 to 88 °C; that for `Cc1ccc(NCc2ccc(N(C)C)cc2)cc1C` was 73 to 75 °C.
Molecule `COc1cc(N2CCC(N3CCN(C(=O)OCc4ccccc4)CC3)CC2)ccc1Nc1ncc2ccc(-c3ccccc3OC)n2n1` showed a melting point of 75 to 76 °C.
On to `Cc1nc(N)nc(N)c1OCCCc1ccccc1`, for which the melting point lay within 160 to 162 °C.
On to `Cc1cc(SCc2sc(-c3ccc(Cl)cc3)nc2C)ccc1OCC(=O)O`, for which the melting point was 109 °C.
As for `Cc1cccc(NC(=O)NC(Cc2ccccc2)C(=O)N(CC(=O)OC(C)(C)C)c2ccccc2)c1` (racemic), the figure is 198 °C.
`CC(C)(C)Sc1c(CC(C)(C)C(=O)O)n(Cc2ccc(Cl)cc2)c2ccc(-c3ccccc3)cc12` gave a melting point of 245 to 246 °C.
In turn, `O=C(NCCCCCCCCn1ccnc1)c1ccc(Cl)s1` came in with a melting point of 95 to 97 °C.
The value for `COC(=O)c1cscc1S(=O)(=O)Cl` was 71 °C; that for `Cc1c(C=NO)c2cc(F)ccc2n1-c1ccc(OCc2ccccc2)cc1` was 183 to 185 °C.
As for `CCOC(=O)C1=C(N)NC(CF)=C(C(=O)OCC)C1c1cccc([N+](=O)[O-])c1` (stereo unspecified), the figure is 177 to 178 °C; as for `N#CCOc1ccc2cc(-c3cc4ccccc4s3)ccc2c1Br`, 179 to 181 °C; as for `CN(C)Cc1ccc(-c2ccc(S(=O)(=O)n3ccc(C=CC(=O)NO)c3)cc2)cc1`, 216 to 217 °C.
For `COC(=O)c1ccc(C(F)(F)F)[nH]c1=O`, the melting point fell in the range of 63 to 64 °C.
In turn, `CCSC1(CCO)C(=O)Nc2ccc(F)cc21` (stereo unspecified) came in with a melting point of 125 °C.
`O=S(=O)(Nc1cc(Cl)c(Cl)c(Cl)c1)c1cc(S(=O)(=O)Nc2cc(Cl)c(Cl)c(Cl)c2)c2cc(O)ccc2c1` showed a melting point of 164 to 166 °C.
The molecule `O=C1c2ccccc2-c2c1c1ccccc1c(=O)n2CCCO` returned a melting point of 173 to 175 °C.
The molecule `CC(C)N(O)C(=O)Nc1cccc(S(C)(=O)=O)c1` gave a melting point of 168 to 169 °C.
As for `COC(=O)c1ccc(Cn2c(=O)c3cc(C(=O)NCc4ccc(OC)cc4)sc3n(C)c2=O)cc1`, the figure is 235 to 237 °C; as for `NCCNc1ccc2ncc(Br)n2n1`, 158 to 159 °C.
`Oc1ccc(Cl)cc1C(O)c1ccc(Cl)cc1` (stereo unspecified) gave a melting point of 106 to 107 °C.
The value for `COc1cccc(CC2SCCCS2)c1` was 54 to 56 °C.
